In ChEMBL document CHEMBL1201862, “PubChem BioAssay data set” (2004):
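Step 1: Grow cells in 96-well plates. Step 2: Expose to compound for 48 hours at 5 concentrations. Step 3: Interpolate endpoints linearly; if unreached, use highest concentration. At the GI50, growth is halved.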 Calls of active or inactive are those of the source. No stated cut-off is given here; in the data, active = GI50 up to about 1.1 µM and inactive = higher.

Columns and labels:
Test in all cases: DTP human tumour cell line panel, 48 h
MOLT-4 = tested on: MOLT-4
UO-31 = tested on: UO-31
HOP-62 = tested on: HOP-62
OVCAR-8 = tested on: OVCAR-8
HOP-18 = tested on: HOP-18
SNB-75 = tested on: SNB-75
OVCAR-5 = tested on: OVCAR-5
DMS-114 = tested on: DMS-114
CAKI-1 = tested on: CAKI-1
SN12C = tested on: SN12C
SF-539 = tested on: SF-539
NCI-H522 = tested on: NCI-H522
A498 = tested on: A498
A549 = tested on: A549
DU-145 = tested on: DU-145
TK-10 = tested on: TK-10
MDA-MB-231 = tested on: MDA-MB-231
PC-3 = tested on: PC-3
MDA-N = tested on: MDA-N
SR = tested on: SR

Structure (SMILES) | GI50 (MOLT-4) | GI50 (UO-31) | GI50 (HOP-62) | GI50 (OVCAR-8) | GI50 (HOP-18) | GI50 (SNB-75) | GI50 (OVCAR-5) | GI50 (DMS-114) | GI50 (CAKI-1) | GI50 (SN12C) | GI50 (SF-539) | GI50 (NCI-H522) | GI50 (A498) | GI50 (A549) | GI50 (DU-145) | GI50 (TK-10) | GI50 (MDA-MB-231) | GI50 (PC-3) | GI50 (MDA-N) | GI50 (SR)
COc1cc(C2c3cc4c(cc3[C@@H](Nc3cnc5ccccc5c3)C3COC(=O)[C@H]23)OCO4)cc(OC)c1O (stereo not given in full) | < 0.01 µM (active) | 0.275 µM (active) | 0.128 µM (active) | 0.346 µM (active) | 0.34 µM (active) | 0.478 µM (active) | 0.736 µM (active) | 0.277 µM (active) | 0.129 µM (active) | 0.338 µM (active) | 0.168 µM (active) | 1.03 µM (active) | 0.22 µM (active) | < 0.01 µM (active) | – | – | – | – | – | –
CC1(C)N=C(N)N=C(N)N1c1ccc(OCCCOc2ccccc2)c(Cl)c1 | 0.0336 µM (active) | – | – | 0.514 µM (active) | 0.67 µM (active) | 0.948 µM (active) | 0.295 µM (active) | 0.076 µM (active) | 1.77 µM (inactive) | 0.202 µM (active) | 0.336 µM (active) | 0.247 µM (active) | 1.4 µM (inactive) | 0.0473 µM (active) | – | – | – | – | – | –
CC(NC(C#N)CC12CC3CC(CC(C3)C1)C2)c1ccccc1 (stereo not given) | 27.9 µM (inactive) | 77.8 µM (inactive) | > 100 µM (inactive) | 60.8 µM (inactive) | – | – | 63.8 µM (inactive) | – | 33.3 µM (inactive) | – | – | > 100 µM (inactive) | > 100 µM (inactive) | > 100 µM (inactive) | 41.8 µM (inactive) | > 100 µM (inactive) | 81.1 µM (inactive) | > 100 µM (inactive) | > 100 µM (inactive) | 28.4 µM (inactive)
C=CCn1c(=O)c(C)cn(COCCO)c1=O | > 100 µM (inactive) | > 100 µM (inactive) | > 100 µM (inactive) | > 100 µM (inactive) | – | > 100 µM (inactive) | > 100 µM (inactive) | – | > 100 µM (inactive) | > 100 µM (inactive) | > 100 µM (inactive) | > 100 µM (inactive) | > 10 µM (inactive) | > 100 µM (inactive) | > 100 µM (inactive) | > 100 µM (inactive) | > 100 µM (inactive) | > 100 µM (inactive) | > 100 µM (inactive) | –
C=C1C(=O)OC2C1CC1OC2C(C)CCC/C(C)=C\CCC1(C)O (stereo not given) | 8.15 µM (inactive) | 32.3 µM (inactive) | 32.2 µM (inactive) | 9.46 µM (inactive) | 10.6 µM (inactive) | 15.3 µM (inactive) | 69.2 µM (inactive) | 11.6 µM (inactive) | 18.6 µM (inactive) | 19.5 µM (inactive) | 16.5 µM (inactive) | 8.71 µM (inactive) | 19.9 µM (inactive) | 29.7 µM (inactive) | – | – | – | – | – | –
C[C@]12CC[C@H](O)C=C1CC[C@@H]1[C@@H]2CC[C@]2(C)C(c3ccc(=O)oc3)CC[C@]12O (stereo not given in full) | – | 0.0141 µM (active) | 0.0125 µM (active) | 0.015 µM (active) | 0.014 µM (active) | 0.0156 µM (active) | 0.108 µM (active) | – | 0.0151 µM (active) | 0.0125 µM (active) | 0.0125 µM (active) | 0.0125 µM (active) | 0.0125 µM (active) | 0.0125 µM (active) | – | – | – | – | – | –
CCN(CC)CCCNc1ncc(C)c2[nH]c3ccncc3c12 | 2.65 µM (inactive) | 28.1 µM (inactive) | 18.6 µM (inactive) | 7.29 µM (inactive) | – | 12.4 µM (inactive) | 4.7 µM (inactive) | 7.8 µM (inactive) | – | 4.88 µM (inactive) | 6.5 µM (inactive) | 7.74 µM (inactive) | 17.6 µM (inactive) | 4.91 µM (inactive) | – | – | – | – | – | –
COc1ccc(C(=O)/C(Br)=C/C(=O)O)cc1 | 17.6 µM (inactive) | 37.2 µM (inactive) | 17.4 µM (inactive) | 21 µM (inactive) | 45.8 µM (inactive) | 35.5 µM (inactive) | 42.1 µM (inactive) | 18.6 µM (inactive) | 39.3 µM (inactive) | 37.8 µM (inactive) | – | 7 µM (inactive) | 25.1 µM (inactive) | 40.2 µM (inactive) | 32 µM (inactive) | 51.3 µM (inactive) | 28.2 µM (inactive) | 29.7 µM (inactive) | 20 µM (inactive) | 25.1 µM (inactive)
CC(=O)C(C(=O)C(=O)Nc1cc(Cl)c(Cl)cc1Cl)c1csc(N)n1 (stereo not given) | > 100 µM (inactive) | > 100 µM (inactive) | > 100 µM (inactive) | > 100 µM (inactive) | – | > 100 µM (inactive) | > 100 µM (inactive) | > 100 µM (inactive) | > 100 µM (inactive) | > 100 µM (inactive) | > 100 µM (inactive) | > 100 µM (inactive) | > 100 µM (inactive) | > 100 µM (inactive) | – | > 100 µM (inactive) | – | – | – | > 100 µM (inactive)
CCOC(=O)Oc1ccc(C(CNC(C)C)OC(=O)OCC)cc1OC(=O)OCC (stereo not given) | 96.8 µM (inactive) | 43.4 µM (inactive) | > 100 µM (inactive) | > 100 µM (inactive) | – | > 100 µM (inactive) | > 100 µM (inactive) | – | > 100 µM (inactive) | > 100 µM (inactive) | > 100 µM (inactive) | 49.9 µM (inactive) | > 100 µM (inactive) | > 100 µM (inactive) | > 100 µM (inactive) | > 100 µM (inactive) | 26.2 µM (inactive) | > 100 µM (inactive) | > 100 µM (inactive) | > 100 µM (inactive)
CC12Nc3ccccc3C1=C(c1ccccc1)CC1C(=O)OC(=O)C12 (stereo not given) | > 100 µM (inactive) | > 100 µM (inactive) | > 100 µM (inactive) | > 100 µM (inactive) | – | 1.86 µM (inactive) | > 100 µM (inactive) | > 100 µM (inactive) | – | > 100 µM (inactive) | > 100 µM (inactive) | > 100 µM (inactive) | – | > 100 µM (inactive) | – | > 100 µM (inactive) | – | – | – | –
CN(C)c1ccc(N2C(=S)SC(=N\c3ccccc3)/C2=N/c2ccccc2)cc1 | > 10 µM (inactive) | > 100 µM (inactive) | > 100 µM (inactive) | > 100 µM (inactive) | – | > 100 µM (inactive) | > 100 µM (inactive) | – | > 100 µM (inactive) | > 100 µM (inactive) | – | > 100 µM (inactive) | > 100 µM (inactive) | – | > 100 µM (inactive) | – | > 100 µM (inactive) | 37.8 µM (inactive) | > 100 µM (inactive) | > 100 µM (inactive)
COC(=O)C1=C(OC(=O)/C=C/c2ccc(Cl)cc2)C(C(=O)OC)[C@@]2(O)[C@@H](C(=O)OC)[C@H](C)C[C@@H]1[C@@H]2C(=O)OC (stereo not given in full) | 15.8 µM (inactive) | 27 µM (inactive) | 28.8 µM (inactive) | 14.6 µM (inactive) | – | 25.9 µM (inactive) | 28.4 µM (inactive) | – | 22.5 µM (inactive) | 19 µM (inactive) | 17.6 µM (inactive) | 6.81 µM (inactive) | – | 23.2 µM (inactive) | 39.4 µM (inactive) | 62.8 µM (inactive) | 24.5 µM (inactive) | 20.7 µM (inactive) | 10.4 µM (inactive) | –
COC1=CC(=O)C=C(OC)C1=O [2,6-DIMETHOXYQUINONE] | 1.49 µM (inactive) | 23.6 µM (inactive) | 25.3 µM (inactive) | 8.93 µM (inactive) | 45.8 µM (inactive) | 27.9 µM (inactive) | 28.1 µM (inactive) | 5.81 µM (inactive) | 50.4 µM (inactive) | 15.6 µM (inactive) | 16.8 µM (inactive) | 7.05 µM (inactive) | 2.49 µM (inactive) | 57.1 µM (inactive) | – | – | – | – | – | –
O=C(Nc1nc2ccc([N+](=O)[O-])cc2s1)C(=O)C(C(=O)c1ccccc1F)C1OC(=O)c2ccccc21 (stereo not given) | 17.7 µM (inactive) | 38 µM (inactive) | 62.2 µM (inactive) | 47.9 µM (inactive) | – | 30.9 µM (inactive) | 71 µM (inactive) | 25.1 µM (inactive) | 41.4 µM (inactive) | 40.5 µM (inactive) | 21.3 µM (inactive) | 17.4 µM (inactive) | 42.8 µM (inactive) | 57 µM (inactive) | – | 87.1 µM (inactive) | – | – | – | 16.8 µM (inactive)
NCCCNCCSSCc1ccccc1CSSCCNCCCN | 22 µM (inactive) | 60.5 µM (inactive) | > 100 µM (inactive) | > 100 µM (inactive) | > 100 µM (inactive) | 16.4 µM (inactive) | > 100 µM (inactive) | 57.3 µM (inactive) | 35.7 µM (inactive) | > 100 µM (inactive) | > 100 µM (inactive) | 10.7 µM (inactive) | > 100 µM (inactive) | > 100 µM (inactive) | – | > 100 µM (inactive) | – | – | – | –
COc1ccc2c(c1)c1cc(OC)ccc1n2CCCCOc1ccc(-c2c3ccccc3c(-c3ccc(OCCCCn4c5ccc(OC)cc5c5cc(OC)ccc54)cc3)c3ccccc23)cc1 | > 100 µM (inactive) | > 100 µM (inactive) | > 100 µM (inactive) | > 100 µM (inactive) | – | > 100 µM (inactive) | > 100 µM (inactive) | > 100 µM (inactive) | > 100 µM (inactive) | > 100 µM (inactive) | > 100 µM (inactive) | > 100 µM (inactive) | – | > 100 µM (inactive) | – | > 100 µM (inactive) | – | – | – | –
C[S+](C)([O-])=Nn1c(=O)n2n(c1=O)[C@H]1CC[C@@H]2C1 | > 100 µM (inactive) | > 100 µM (inactive) | > 100 µM (inactive) | > 100 µM (inactive) | – | > 100 µM (inactive) | > 100 µM (inactive) | – | > 100 µM (inactive) | – | > 100 µM (inactive) | > 100 µM (inactive) | > 100 µM (inactive) | > 100 µM (inactive) | > 100 µM (inactive) | > 100 µM (inactive) | > 100 µM (inactive) | > 100 µM (inactive) | > 100 µM (inactive) | > 100 µM (inactive)
